Measurements reported in patent US11834434B2, “Substituted 2-heteroaryloxypyridines and salts thereof and their use as herbicidal agents” (Bayer Aktiengesellschaft, priority 2018, dated 2023).

Columns and labels:
Format in all cases: in vivo
[1] = test system: Poa annua (POAAN); assay: Pre-emergence herbicidal action against Poa annua; details: 1280 g/ha; scored visually after about 3 weeks vs untreated controls; 100% = plants have died, 0% = like control plants
Source text: (§1) Seeds of mono- and dicotyledonous weed plants were placed in plastic pots in sandy loam soil (doubly sown with in each case one species of mono- or dicotyledonous weed plants per pot) and covered with soil. The compounds of the invention, formulated in the form of wettable powders (WP) or as emulsion concentrates (EC), were then applied onto the surface of the covering soil as aqueous suspension or emulsion with addition of 0.5% additive at a water application rate of 600 liters per hectare (converted). After the treatment, the pots were placed in a greenhouse and kept under good growth conditions for the test plants. After about 3 weeks, the effect of the preparations was scored visually in comparison with untreated controls as percentages. For example, 100% activity=the plants have died, 0% activity=like control plants. Tables C1 to C8 below show the effects of selected compounds of the general formula (I) according to Table 1 on various harmful plants and an application rate corresponding to 1280 g/ha, which were obtained by the experimental procedure mentioned above.

[2] = test system: Stellaria media (STEME); assay: Pre-emergence herbicidal action against Stellaria media; details: 1280 g/ha; scored visually after about 3 weeks vs untreated controls; 100% = plants have died, 0% = like control plants
Source text: as §1

[3] = test system: Lolium rigidum (LOLRI); assay: Pre-emergence herbicidal action against Lolium rigidum; details: 1280 g/ha; scored visually after about 3 weeks vs untreated controls; 100% = plants have died, 0% = like control plants
Source text: as §1

[4] = test system: Amaranthus retroflexus (AMARE); assay: Pre-emergence herbicidal action against Amaranthus retroflexus; details: 1280 g/ha; scored visually after about 3 weeks vs untreated controls; 100% = plants have died, 0% = like control plants
Source text: as §1

[5] = test system: Setaria viridis (SETVI); assay: Pre-emergence herbicidal action against Setaria viridis; details: 1280 g/ha; scored visually after about 3 weeks vs untreated controls; 100% = plants have died, 0% = like control plants
Source text: as §1

[6] = test system: Amaranthus retroflexus (AMARE); assay: Post-emergence herbicidal action against Amaranthus retroflexus; details: 1280 g/ha; rated visually after about 3 weeks vs untreated controls; 100% = plants have died, 0% = like control plants
Protocol: (§2) Seeds of mono- and dicotyledonous weed plants were placed in plastic pots in sandy loam soil (doubly sown with in each case one species of mono- or dicotyledonous weed plants per pot), covered with soil and cultivated in a greenhouse under controlled growth conditions. 2 to 3 weeks after sowing, the test plants were treated at the one-leaf stage. The compounds of the invention, formulated in the form of wettable powders (WP) or as emulsion concentrates (EC), were applied onto the green parts of the plants as aqueous suspension or emulsion with addition of 0.5% additive at a water application rate of 600 liters per hectare (converted). After the test plants had been kept in the greenhouse under optimum growth conditions for about 3 weeks, the activity of the preparations was rated visually in comparison to untreated controls. For example, 100% activity=the plants have died, 0% activity=like control plants. Tables B1 to B8 below show the effects of selected compounds of the general formula (I) according to Table 1 on various harmful plants and an application rate corresponding to 1280 g/ha, which were obtained by the experimental procedure mentioned above.

[7] = test system: Echinochloa crus-galli (ECHCG); assay: Pre-emergence herbicidal action against Echinochloa crus-galli; details: 1280 g/ha; scored visually after about 3 weeks vs untreated controls; 100% = plants have died, 0% = like control plants
Source text: as §1

[8] = test system: Poa annua (POAAN); assay: Post-emergence herbicidal action against Poa annua; details: 1280 g/ha; rated visually after about 3 weeks vs untreated controls; 100% = plants have died, 0% = like control plants
Protocol: as §2

[9] = test system: Abutilon theophrasti (ABUTH); assay: Pre-emergence herbicidal action against Abutilon theophrasti; details: 1280 g/ha; scored visually after about 3 weeks vs untreated controls; 100% = plants have died, 0% = like control plants
Source text: as §1

[10] = test system: Matricaria inodora (MATIN); assay: Pre-emergence herbicidal action against Matricaria inodora; details: 1280 g/ha; scored visually after about 3 weeks vs untreated controls; 100% = plants have died, 0% = like control plants
Source text: as §1

[11] = test system: Stellaria media (STEME); assay: Post-emergence herbicidal action against Stellaria media; details: 1280 g/ha; rated visually after about 3 weeks vs untreated controls; 100% = plants have died, 0% = like control plants
Protocol: as §2

SMILES | Pre-emergence action against Poa annua (POAAN) [1] | Pre-emergence action against Stellaria media (STEME) [2] | Pre-emergence action against Lolium rigidum (LOLRI) [3] | Pre-emergence action against Amaranthus retroflexus (AMARE) [4] | Pre-emergence action against Setaria viridis (SETVI) [5] | Post-emergence action against Amaranthus retroflexus (AMARE) [6] | Pre-emergence action against Echinochloa crus-galli (ECHCG) [7] | Post-emergence action against Poa annua (POAAN) [8] | Pre-emergence action against Abutilon theophrasti (ABUTH) [9] | Pre-emergence action against Matricaria inodora (MATIN) [10] | Post-emergence action against Stellaria media (STEME) [11]
Cc1ccc(Cc2ccc(C)nc2Oc2ncccn2)cc1 [Example I-449] | 90% | 100% |  |  |  |  |  |  |  |  | 
COc1cc(Cc2ccc(C)nc2Oc2ncc(C(F)(F)F)cn2)ccc1F [Example I-465] | 100% | 90% | 90% | 100% | 90% | 90% |  |  |  |  | 
Cc1ccc(Oc2ccccc2)c(Oc2ncc(C(F)(F)F)cn2)n1 [Example I-533, 2-[(6-Methyl-3-phenoxy-2-pyridyl)oxy]-5-(trifluoromethyl)pyrimidine] | 90% | 100% |  |  | 90% |  | 90% | 100% |  |  | 
Cc1ccc(Cc2ccc(C)nc2Oc2ncc(Cl)cn2)cc1 [Example I-405] |  | 100% |  | 100% | 100% |  |  |  |  |  | 
COc1cc(Oc2ccc(C)nc2Oc2ncc(Cl)cn2)ccc1F [Example I-509] | 100% | 100% | 90% | 100% | 90% | 100% |  |  | 100% | 100% | 
Cc1ccc(Oc2ccc(Cl)cc2)c(Oc2ncc(C(F)(F)F)cn2)n1 [Example I-534] |  | 100% | 100% | 90% | 90% |  |  |  |  | 90% | 
COc1cc(Oc2ccc(C)nc2Oc2ncccn2)ccc1F [Example I-531] | 100% | 100% |  | 100% | 100% |  | 90% |  | 100% | 100% | 
Cc1ccc(Cc2ccc(C)nc2Oc2ncc(F)cn2)cc1 [Example I-438] |  | 100% |  |  |  | 90% |  |  | 90% | 100% | 90%
Cc1ccc(Cc2ccc(F)cc2F)c(Oc2ncc(Cl)cn2)n1 [Example I-400] | 100% | 100% |  | 90% | 100% |  |  |  |  | 90% | 
Cc1ccc(Oc2ccc(Cl)cc2)c(Oc2ncccn2)n1 [Example I-526] | 100% | 100% |  | 100% | 100% |  | 100% | 100% | 100% | 100% | 
COc1cc(Cc2ccc(C)nc2Oc2ncc(Cl)cn2)ccc1F [Example I-406] | 100% | 100% | 90% | 90% | 100% | 90% |  | 90% |  | 100% | 90%
COc1cc(Cc2ccc(C)nc2Oc2ncc(F)cn2)ccc1F [Example I-439] | 100% | 100% |  | 90% | 100% |  | 100% |  | 100% |  | 90%
Cc1ccc(Cc2ccccc2)c(Oc2ncccn2)n1 [Example I-441] | 100% | 100% | 90% | 100% | 100% | 100% | 100% |  | 100% | 100% | 100%
Cc1ccc(Oc2ccccc2)c(Oc2ncccn2)n1 [Example I-522] | 100% | 100% | 90% | 90% | 100% | 100% | 100% | 90% | 100% | 90% | 100%
COc1cc(Cc2ccc(C)nc2Oc2ncccn2)ccc1F [Example I-450] | 100% | 100% | 90% | 90% | 100% | 90% | 90% |  | 100% | 100% | 
Fc1ccc(Sc2cccnc2Oc2ncc(F)cn2)cc1 [Example I-154] | 100% | 100% |  | 100% | 100% | 100% |  |  |  | 100% | 
